Test results taken from article PMC7238388, “Biological Evaluation of Newly Synthesized Biaryl Guanidine Derivatives to Arrest β-Secretase Enzymatic Activity Involved in Alzheimer's Disease” (BioMed Research International, 2020).
Like-named read-outs stand apart in the source and are kept apart here.

What was measured:
BACE1 enzyme = molecular target: T1, BACE1 enzyme (Homo sapiens, UniProt P56817); experiment: BACE1 FRET-based inhibitory activity assay (Sigma-Aldrich kit CS0010); type: biochemical
T1 construct: purchased Sigma-Aldrich CS0010
Method: BACE1 inhibitory activity was carried out by adopting the procedures described by the Sigma-Aldrich FRET-based assay activity kit (product # CS0010).
Briefly, the assay was carried out in a fixed volume of 100 μl with the BACE1 substrate (20 μl, 50 μM), assay buffer (78 μl/78-X μl, pH 4.5), test sample(s) (X μl, 100 μM), and BACE1 enzyme (2 μl, ~0.3 unit/μl) incubated at 37°C for 75 min in 96-well microplate reaction mixture. The baseline fluorescence (null time) signal was noticed (at 320 nm) immediately after the addition of BACE1 enzymes while emission signals were monitored at 405 nm at 25°C. Both the enzyme and the substrate were prepared in the buffer while tested samples dissolved primarily in DMSO (5%) subsequently in serially diluted buffer solution in a desired volume of 2 μl, 3 μl, and 5 μl having 200 pmol, 300 pmol, and 500 pmol concentration, respectively. A standard curve was prepared between fluorescent unit (FU) and standard solution (100 μM, 100-500 pmol, and 1-5 μl) to find out 50% BACE1 cleaving activity. The sample blank (buffer with substrate) was treated as the negative control while the positive control was the solution of the buffer with substrate and enzyme mixture (http://www.sigmaaldrich.com). Finally, IC50 of the intended compounds were calculated via GraphPad Prism v8 software.

[1] = tested on: AlCl3-induced mouse models; experiment: Novel object recognition memory test in AlCl3-induced AD model mice; type: in vivo, BALB/c mice; settings: AD model treated with compound; control 64.44 ± 2.50 s, AD model 31.80 ± 2.00 s; p < 0.05
Method: (§1) Male BALB/c mice (3.5 to 5.5 months of age) were purchased from National Institute of Health (NIH) Islamabad, Pakistan. All experiments were performed by following the rules and regulations in accordance with the Helsinki Declaration after getting permission from the Departmental Review Committee (Ref. # PHM.Eth/CS-M01/18-001 dated 05/2018). Animals were kept in standard cages and provided food, water, and cleanliness in accordance with the documented protocols. Moreover, they were categorized into nine groups (n = 10) for experimental purposes.
(§2) The control group of mice was treated with drinking water having aluminum chloride (17 mg/kg) and tape water for a period of five weeks. Synthesized ligands (20-55 mg/kg) were administered to neutralize the AlCl3 effects and to design treated mouse groups. All the behavioral tests were performed on days 28 to 34 (08:30 am to 4:30 pm at 25 ± 2°C). Animals were shifted 20 minutes prior to the experimentation room to get accustomed with the test environment. Trials were recorded via videocam, and results were obtained to reveal the final conclusions.
The novel object recognition memory test is an additional procedure to describe and evaluate the memory of the rodents. The entire methodology was performed in a specific designed box of dimensions about 25 cm × 25 cm × 25 cm at daytime (25 ± 2°C). […]

[2] = tested on: AlCl3-induced neurotoxic mice; experiment: Morris water maze test in AlCl3-induced neurotoxicity mice; type: in vivo, BALB/c mice
Method: as §1, §2
To evaluate 3D spatial recalling memory of the animals under observations, an authentic and sensitive assay “Morris water maze test” was carried out.
The apparatus used for this test has a round pool with a 120 cm diameter and a 60 cm of depth. The pool is divided into 4 hypothetical quadrants North, West, South, and East. The experiment began on day 28, and 5 trials were executed each day. The mouse was given 1 min to find out the hidden platform with a 10 min interval between the two successive trials. The usual time essential for a mouse to reach at the platform was recorded, and an average of 5 trials was presumed as the escape latency of the animal for that day. On the 32nd day of intervention, a probe test was executed when there was no platform, with a different release position. The spatial memory of the mouse was estimated by computing the time spent by the mouse in the quadrant in which the platform was formerly located. […]

[3] = BACE1 FRET assay, pH 4.5, 37°C, 75 min, read-out: IC50

T1 sequence (P56817 46-501): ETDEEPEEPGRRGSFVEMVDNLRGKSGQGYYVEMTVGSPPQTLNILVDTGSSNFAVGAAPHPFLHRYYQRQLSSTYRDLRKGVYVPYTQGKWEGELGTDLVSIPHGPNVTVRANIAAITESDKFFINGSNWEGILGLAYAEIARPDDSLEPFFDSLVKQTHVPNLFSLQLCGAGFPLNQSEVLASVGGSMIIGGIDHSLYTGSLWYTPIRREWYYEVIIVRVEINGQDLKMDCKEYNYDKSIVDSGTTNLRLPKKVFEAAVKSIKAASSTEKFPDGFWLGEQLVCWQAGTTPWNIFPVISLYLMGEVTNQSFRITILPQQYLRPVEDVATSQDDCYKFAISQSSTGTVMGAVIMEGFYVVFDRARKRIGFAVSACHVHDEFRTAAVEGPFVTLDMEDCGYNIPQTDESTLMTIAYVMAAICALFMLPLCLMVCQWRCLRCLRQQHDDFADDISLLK

Row | Compound | IC50 (BACE1 enzyme; [3]) | melting point | also measured
1 | N=C(Nc1ccc(Br)c2ccccc12)Nc1ccc(Br)c2ccccc12 [Compound 2, 1,3-bis(4-bromonaphthalen-1-yl)guanidine] | 235 µM | 128 to 130 °C | 
2 | N=C(Nc1ccccc1[N+](=O)[O-])Nc1ccccc1[N+](=O)[O-] [Compound 3, 1,3-bis(2-nitrophenyl)guanidine] |  | 136 to 138 °C | IC50 (BACE1 enzyme): 259 µM
3 | N=C(Nc1ccc2ccccc2c1)Nc1ccc2ccccc2c1 [Compound 7, 1,3-di(naphthalen-2-yl)guanidine] | 159 µM | 146 to 148 °C | 
4 | N=C(Nc1cc(C(F)(F)F)cc(C(F)(F)F)c1)Nc1cc(C(F)(F)F)cc(C(F)(F)F)c1 [Compound 8, 1,3-bis(3,5-bis(trifluoromethyl)phenyl)guanidine] | 229 µM | 76 to 78 °C | 
5 | N=C(Nc1cnc(F)c(F)c1)Nc1cnc(F)c(F)c1 [Compound 9, 1,3-bis(5,6-difluoropyridin-3-yl)guanidine] |  | 128 to 130 °C | exploration time [1]: 53.80 ± 2.15 s; escape latency ([2]; day 5, AlCl3-induced mice treated with compound, AlCl3 group 50.60 ± 3.70, control 20.20 ± 2.01, p < 0.05, in s (unit assumed)): 27.72 ± 2.60; number of crossings of the targeted quadrant ([2]; probe test, AD model 6.10 ± 1.0, control 19.80 ± 1.90): 16.70 ± 1.07; time spent in exploration of the targeted quadrant ([2]; probe test, per hundred of total time (Figure 2c), AD-induced 23.6 ± 2.01, control 49.60 ± 2.35): 41.07 ± 2.5
6 | N=C(Nc1ccc(Br)cc1)Nc1ccc(Br)cc1 [Compound 10, 1,3-bis(4-bromophenyl)guanidine] | 321 µM | 250 to 252 °C | BACE1 inhibition (BACE1 enzyme; FRET assay, at 500 pmol): 35%
7 | N=C(Nc1ccc(Cl)cc1F)Nc1ccc(Cl)cc1F [Compound 11, 1,3-bis(4-chloro-2-fluorophenyl)guanidine] | 172 µM | 160 to 162 °C | 
8 | N=C(Nc1ccc(F)cc1)Nc1ccc(F)cc1 [Compound 12, 1,3-bis(4-fluorophenyl)guanidine] | 103 µM | 146 to 148 °C | 

Further lines, with some results ahead:

Row | IC50 (BACE1 enzyme; [3]) | melting point | Compound | also measured
9 | 85 µM | 130 to 132 °C | N=C(Nc1ccccc1F)Nc1ccccc1F [Compound 1, 1,3-bis(2-fluorophenyl)guanidine] | 
10 | 9 µM | 140 to 142 °C | N=C(Nc1ccccn1)Nc1ccccn1 [Compound 4, 1,3-di(pyridin-2-yl)guanidine] | 
11 | 0.091 µM | 133 to 134 °C | N=C(Nc1ccc2ncccc2c1)Nc1ccc2ncccc2c1 [Compound 5, 1,3-di(quinolin-6-yl)guanidine] | 
12 | 0.102 µM | 126 to 128 °C | N=C(Nc1cc(F)c2ccccc2c1)Nc1cc(F)c2ccccc2c1 [Compound 6, 1,3-bis(4-fluoronaphthalen-2-yl)guanidine] | 
13 | 71 µM |  | N=C(Nc1ccc(F)c(F)c1)Nc1ccc(F)c(F)c1 [Compound 13, 1,3-bis(3,4-difluorophenyl)guanidine] | 
